{
  "source": "patent US8952024B2",
  "about": "“Herbicidal pyrimidone derivatives” (E I du Pont de Nemours and Company, priority 2009, dated 2015)",
  "test_in_all_cases": "Test B pre-/postemergence plant response",
  "assay_type_in_all_cases": "in vivo",
  "key": {"[1]": {"system": "Italian ryegrass (Lolium multiflorum)", "details": "Lolium multiflorum, post-emergence, Postemergence, scale 0 to 100 (0 no effect, 100 complete control), read-out: Plant response rating, Ryegrass, Italian", "outline": "(§1)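 Test compounds, formulated in a non-phytotoxic solvent mixture with surfactant, are applied to the soil surface (loam and sand blend) right after seeding, or sprayed over plants at the 1- to 4-leaf stage grown in peat moss/vermiculite medium. After 13 to 15 days under glasshouse conditions, each species is scored visually from 0 (no effect) to 100 (complete control) against controls.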"}, "corn (Zea mays)": {"system": "corn (Zea mays)", "outline": "as §1"}, "soybean (Glycine max)": {"system": "soybean (Glycine max)", "outline": "as §1"}, "[2]": {"system": "green foxtail (Setaria viridis)", "outline": "as §1"}, "[3]": {"system": "bermudagrass (Cynodon dactylon)", "outline": "as §1"}, "[4]": {"system": "Surinam grass (Brachiaria decumbens)", "outline": "as §1"}, "[5]": {"system": "large crabgrass (Digitaria sanguinalis)", "outline": "as §1"}, "kochia (Kochia scoparia)": {"system": "kochia (Kochia scoparia)", "outline": "as §1"}, "[6]": {"system": "cocklebur (Xanthium strumarium)", "outline": "as §1"}, "[7]": {"details": "62 g ai/ha, postemergence, 0 is no effect, 100 is complete control, 13 to 15 days"}},
  "data": [
    {"smiles": "O=C1CCCC(O)=C1C(=O)c1cnc(-c2ccccc2)n(C2CCCCC2)c1=O", "note": "[Compound 128, 3-cyclohexyl-5-[(2-hydroxy-6-oxo-1-cyclohexen-1-yl)carbonyl]-2-phenyl-4(3H)-pyrimidinone]", "values": [
      {"measurement": "pest or weed control at 125 g/ha", "setting": "[1]; 125 g ai/ha", "value": 5, "unit": "%"},
      {"measurement": "pest or weed control at 250 g/ha", "setting": "[1]; 250 g ai/ha, 13 to 15 days", "value": 30, "unit": "%"},
      {"measurement": "Corn plant response rating (0 to 100 scale)", "setting": "corn (Zea mays); [7]", "value": 50},
      {"measurement": "Corn plant response rating (crop injury, 0 = no effect, 100 = complete kill) at 31 g/ha", "setting": "corn (Zea mays); Zea mays, post-emergence, Postemergence, 31 g ai/ha, 0 to 100 scale (0 no effect, 100 complete control)", "value": 40, "unit": "%"},
      {"measurement": "Corn plant response rating (crop injury, 0 = no effect, 100 = complete kill) at 125 g/ha", "setting": "corn (Zea mays); Zea mays, post-emergence, Postemergence, 125 g ai/ha, scale 0 to 100 (0 no effect, 100 complete control)", "value": 60, "unit": "%"},
      {"measurement": "Corn plant response rating (crop injury, 0 = no effect, 100 = complete kill) at 250 g/ha", "setting": "corn (Zea mays); Zea mays, post-emergence, Postemergence, 250 g ai/ha, scale 0 to 100 (0 no effect, 100 complete control), 13 to 15 days", "value": 60, "unit": "%"},
      {"measurement": "Soybean plant response rating (0 to 100 scale)", "setting": "soybean (Glycine max); [7]", "value": 98},
      {"measurement": "plant injury at 31 g/ha", "setting": "soybean (Glycine max); Glycine max, post-emergence, Postemergence, 31 g ai/ha, 0 to 100 scale (0 no effect, 100 complete control), read-out: Plant response rating, Soybean", "value": 98, "unit": "%"},
      {"measurement": "plant injury at 125 g/ha", "setting": "soybean (Glycine max); Glycine max, post-emergence, Postemergence, 125 g ai/ha, scale 0 to 100 (0 no effect, 100 complete control), read-out: Plant response rating, Soybean", "value": 98, "unit": "%"},
      {"measurement": "plant injury at 250 g/ha", "setting": "soybean (Glycine max); Glycine max, post-emergence, Postemergence, 250 g ai/ha, scale 0 to 100 (0 no effect, 100 complete control), 13 to 15 days, read-out: Plant response rating, Soybean", "value": 98, "unit": "%"},
      {"measurement": "Foxtail, Green plant response rating (0 to 100 scale)", "setting": "[2]; [7]", "value": 95},
      {"measurement": "pest or weed control at 31 g/ha", "setting": "[2]; Setaria viridis, post-emergence, Postemergence, 31 g ai/ha, 0 to 100 scale (0 no effect, 100 complete control), read-out: Plant response rating, Foxtail, Green", "value": 85, "unit": "%"},
      {"measurement": "pest or weed control at 125 g/ha", "setting": "[2]; Setaria viridis, post-emergence, Postemergence, 125 g ai/ha, scale 0 to 100 (0 no effect, 100 complete control), read-out: Plant response rating, Foxtail, Green", "value": 95, "unit": "%"},
      {"measurement": "pest or weed control at 250 g/ha", "setting": "[2]; Setaria viridis, post-emergence, Postemergence, 250 g ai/ha, scale 0 to 100 (0 no effect, 100 complete control), 13 to 15 days, read-out: Plant response rating, Foxtail, Green", "value": 98, "unit": "%"},
      {"measurement": "Bermudagrass plant response rating (0 to 100 scale)", "setting": "[3]; [7]", "value": 85},
      {"measurement": "pest or weed control at 31 g/ha", "setting": "[3]; Cynodon dactylon, post-emergence, Postemergence, 31 g ai/ha, 0 to 100 scale (0 no effect, 100 complete control), read-out: Plant response rating, Bermudagrass", "value": 75, "unit": "%"},
      {"measurement": "pest or weed control at 125 g/ha", "setting": "[3]; Cynodon dactylon, post-emergence, Postemergence, 125 g ai/ha, scale 0 to 100 (0 no effect, 100 complete control), read-out: Plant response rating, Bermudagrass", "value": 98, "unit": "%"},
      {"measurement": "pest or weed control at 250 g/ha", "setting": "[3]; Cynodon dactylon, post-emergence, Postemergence, 250 g ai/ha, scale 0 to 100 (0 no effect, 100 complete control), 13 to 15 days, read-out: Plant response rating, Bermudagrass", "value": 100, "unit": "%"},
      {"measurement": "Surinam Grass plant response rating (0 to 100 scale)", "setting": "[4]; [7]", "value": 80},
      {"measurement": "pest or weed control at 31 g/ha", "setting": "[4]; Urochloa decumbens, post-emergence, Postemergence, 31 g ai/ha, 0 to 100 scale (0 no effect, 100 complete control), read-out: Plant response rating, Surinam Grass", "value": 50, "unit": "%"},
      {"measurement": "pest or weed control at 125 g/ha", "setting": "[4]; Urochloa decumbens, post-emergence, Postemergence, 125 g ai/ha, scale 0 to 100 (0 no effect, 100 complete control), read-out: Plant response rating, Surinam Grass", "value": 85, "unit": "%"},
      {"measurement": "pest or weed control at 250 g/ha", "setting": "[4]; Urochloa decumbens, post-emergence, Postemergence, 250 g ai/ha, scale 0 to 100 (0 no effect, 100 complete control), 13 to 15 days, read-out: Plant response rating, Surinam Grass", "value": 85, "unit": "%"},
      {"measurement": "Crabgrass, Large plant response rating (0 to 100 scale)", "setting": "[5]; [7]", "value": 85},
      {"measurement": "pest or weed control at 31 g/ha", "setting": "[5]; Digitaria sanguinalis, post-emergence, Postemergence, 31 g ai/ha, 0 to 100 scale (0 no effect, 100 complete control), read-out: Plant response rating, Crabgrass, Large", "value": 85, "unit": "%"},
      {"measurement": "pest or weed control at 125 g/ha", "setting": "[5]; Digitaria sanguinalis, post-emergence, Postemergence, 125 g ai/ha, scale 0 to 100 (0 no effect, 100 complete control), read-out: Plant response rating, Crabgrass, Large", "value": 95, "unit": "%"},
      {"measurement": "pest or weed control at 250 g/ha", "setting": "[5]; Digitaria sanguinalis, post-emergence, Postemergence, 250 g ai/ha, scale 0 to 100 (0 no effect, 100 complete control), 13 to 15 days, read-out: Plant response rating, Crabgrass, Large", "value": 100, "unit": "%"},
      {"measurement": "Kochia plant response rating (0 to 100 scale)", "setting": "kochia (Kochia scoparia); [7]", "value": 85},
      {"measurement": "pest or weed control at 31 g/ha", "setting": "kochia (Kochia scoparia); Bassia scoparia, post-emergence, Postemergence, 31 g ai/ha, 0 to 100 scale (0 no effect, 100 complete control), read-out: Plant response rating, Kochia", "value": 60, "unit": "%"},
      {"measurement": "pest or weed control at 125 g/ha", "setting": "kochia (Kochia scoparia); Bassia scoparia, post-emergence, Postemergence, 125 g ai/ha, scale 0 to 100 (0 no effect, 100 complete control), read-out: Plant response rating, Kochia", "value": 95, "unit": "%"},
      {"measurement": "pest or weed control at 250 g/ha", "setting": "kochia (Kochia scoparia); Bassia scoparia, post-emergence, Postemergence, 250 g ai/ha, scale 0 to 100 (0 no effect, 100 complete control), 13 to 15 days, read-out: Plant response rating, Kochia", "value": 98, "unit": "%"},
      {"measurement": "Cocklebur plant response rating (0 to 100 scale)", "setting": "[6]; [7]", "value": 98},
      {"measurement": "pest or weed control at 31 g/ha", "setting": "[6]; Xanthium strumarium, post-emergence, Postemergence, 31 g ai/ha, 0 to 100 scale (0 no effect, 100 complete control), read-out: Plant response rating, Cocklebur", "value": 98, "unit": "%"},
      {"measurement": "pest or weed control at 125 g/ha", "setting": "[6]; Xanthium strumarium, post-emergence, Postemergence, 125 g ai/ha, scale 0 to 100 (0 no effect, 100 complete control), read-out: Plant response rating, Cocklebur", "value": 100, "unit": "%"},
      {"measurement": "pest or weed control at 250 g/ha", "setting": "[6]; Xanthium strumarium, post-emergence, Postemergence, 250 g ai/ha, scale 0 to 100 (0 no effect, 100 complete control), 13 to 15 days, read-out: Plant response rating, Cocklebur", "value": 100, "unit": "%"}
    ]}
  ]
}
